Laboratory results published in the supplement of paper PMC10307832.

Columns and labels:
Test in all cases: relative viability (nuclei count vs DMSO), 5 days (fraction); higher = more cells survive
[1] = compound: Cc1ccccc1C(C(=O)NC1CCCCC1)N(C(=O)Cn1ccnc1C)c1cccc(F)c1 [IDH-C35] + C[C@]1(O)C[C@@H](c2nc(-c3ccc4ccc(-c5ccccc5)nc4c3)c3c(N)nccn32)C1 [Linsitinib] (partner 1 µM)
Procedure, shortened: (§1)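 The day after seeding in 1536-well plates, lung cancer cell lines were treated by pin tool with a single drug, or with a fixed anchor-drug dose together with five library-drug doses (not always all listed) in √10 steps. After 5 days, a combined fix-and-stain solution (final 0.05% Triton X-100, 1% formaldehyde, 1 ug/ml Hoechst) was added. Nuclei counted on 4× images gave relative viability as treated counts over vehicle counts, reported as the median of duplicate plates.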

[2] = compound: CC1=C(C(=NN1)C)CC2=C(C3=C(S2)N(C(=O)N(C3=O)C)CC(C)C)C(=O)N4C[C@@H](CO4)O + Cc1cc(Nc2cc(N3CCN(C)CC3)nc(Sc3ccc(NC(=O)C4CC4)cc3)n2)n[nH]1 [Tozasertib] (partner 0.1 µM)
Procedure, shortened: as §1

[3] = compound: Cc1ccccc1C(C(=O)NC1CCCCC1)N(C(=O)Cn1ccnc1C)c1cccc(F)c1 [IDH-C35] + CC(C)C[C@H](NC(=O)[C@H](Cc1ccccc1)NC(=O)c1cnccn1)B(O)O [Bortezomib] (partner 0.002 µM)
Procedure, shortened: as §1

[4] = compound: Cc1ccccc1C(C(=O)NC1CCCCC1)N(C(=O)Cn1ccnc1C)c1cccc(F)c1 [IDH-C35] + COc1cc2c(Oc3ccc(NC(=O)C4(C(=O)Nc5ccc(F)cc5)CC4)cc3F)ccnc2cc1OCCCN1CCOCC1 [Foretinib] (partner 0.25 µM)
Procedure, shortened: as §1

Row | Cell Line | relative viability ([1]; first compound 0.08 µM) | relative viability ([1]; first compound 0.253 µM) | relative viability ([1]; first compound 0.8 µM) | relative viability ([1]; first compound 2.53 µM) | relative viability ([1]; first compound 8 µM) | relative viability ([2]; first compound 0.0025 µM) | relative viability ([2]; first compound 0.007906 µM) | relative viability ([2]; first compound 0.025 µM) | relative viability ([2]; first compound 0.07906 µM) | relative viability ([2]; first compound 0.25 µM) | relative viability ([3]; first compound 0.08 µM) | relative viability ([3]; first compound 0.253 µM) | relative viability ([3]; first compound 0.8 µM) | relative viability ([3]; first compound 2.53 µM) | relative viability ([3]; first compound 8 µM) | relative viability ([4]; first compound 0.08 µM) | relative viability ([4]; first compound 0.253 µM) | relative viability ([4]; first compound 0.8 µM) | relative viability ([4]; first compound 2.53 µM) | relative viability ([4]; first compound 8 µM)
1 | HCC-44 | 0.656 | 0.628 | 0.647 | 0.876 | 0.69 | 0.888 | 0.746 | 0.915 | 0.882 | 1.13 | 0.899 | 0.934 | 0.88 | 0.86 | 0.843 | – | – | – | – | –
2 | HCC-78 | 0.54 | 0.495 | 0.497 | 0.382 | 0.453 | 0.415 | 0.406 | 0.544 | 0.453 | 0.284 | 0.581 | 0.521 | 0.587 | 0.563 | 0.446 | 0.586 | 0.57 | 0.563 | 0.555 | 0.525
3 | HCC-366 | 0.619 | 0.647 | 0.553 | 0.601 | 0.606 | 0.491 | 0.11 | 0.153 | 0.114 | 0.109 | 1.07 | 1.01 | 1.06 | 0.987 | 0.979 | 0.986 | 0.981 | 0.937 | – | 0.938
4 | HCC-827 | 0.99 | 0.889 | 0.98 | 0.837 | 1 | 0.475 | 0.437 | 0.393 | 0.428 | 0.397 | 1.07 | 1.02 | 1.07 | 1.08 | 1.01 | 1.05 | 0.964 | 1.01 | 1.03 | 1.05
5 | HOP-62 | 1.15 | 0.803 | 0.924 | – | 1.01 | 0.312 | 0.376 | 0.344 | 0.393 | 0.407 | 0.725 | 0.77 | 0.73 | – | 0.798 | 1.11 | 1.01 | 0.999 | 1.09 | 1.13
6 | IA-LM | 0.876 | 0.776 | 0.628 | 0.621 | 0.589 | – | – | – | – | – | 0.855 | 0.87 | 0.844 | 0.924 | 0.769 | 1.06 | 1.24 | 1.12 | 1.12 | 1.1
7 | LC-2-ad | 0.867 | 0.829 | 0.774 | 0.875 | 0.886 | 0.53 | 0.462 | 0.494 | 0.44 | 0.426 | 1.01 | 1.03 | 1.01 | 1.04 | 0.935 | 0.917 | 0.938 | 0.904 | – | 0.908
8 | LK-2 | 0.679 | 0.465 | 0.43 | 0.746 | 0.619 | 0.19 | 0.224 | 0.175 | 0.198 | 0.182 | – | – | – | – | – | 1.23 | 1.36 | 1.27 | 1.12 | 1.48
9 | NCI-H358 | 0.746 | 0.719 | 0.786 | 0.713 | 0.649 | 0.12 | 0.0943 | 0.0965 | 0.11 | 0.112 | – | – | – | – | – | 0.757 | 0.738 | 0.685 | 0.769 | 0.603
10 | NCI-H522 | – | – | – | – | – | 0.516 | 0.537 | 0.545 | 0.419 | 0.418 | – | – | – | – | – | – | – | – | – | –
11 | NCI-H1299 | 1.11 | 0.969 | 0.976 | 1 | 0.957 | – | – | – | – | – | 1.02 | 1.01 | 1.03 | 0.964 | 1.03 | 1.1 | 1.07 | 1.01 | 1.06 | 1.09
12 | NCI-H1395 | 1.2 | 1.04 | 1.1 | 1.09 | 0.956 | 0.757 | 0.681 | 0.581 | 0.592 | 0.599 | – | – | – | – | – | 0.972 | 0.976 | 1.07 | 0.896 | 0.971
13 | NCI-H1563 | 1.15 | 1.3 | 1.15 | 1.2 | 1.16 | – | – | – | – | – | 0.854 | 0.937 | 0.844 | 0.909 | 0.757 | 1.01 | 1.01 | 0.872 | 0.907 | 0.774
14 | NCI-H1648 | – | – | – | – | – | 0.462 | 0.542 | 0.754 | 0.37 | 0.458 | – | – | – | – | – | – | – | – | – | –
15 | NCI-H1650 | – | – | – | – | – | 0.482 | 0.406 | 0.386 | 0.503 | 0.446 | 0.227 | 0.205 | 0.229 | 0.213 | 0.213 | 1.11 | 1.13 | 1.23 | 0.879 | 1.14
16 | NCI-H1703 | 0.821 | 0.787 | 0.632 | 0.778 | 0.536 | – | – | – | – | – | 0.326 | 0.346 | 0.422 | 0.43 | 0.261 | 0.321 | 0.335 | 0.334 | 0.367 | 0.348
17 | NCI-H1792 | 0.522 | 0.508 | 0.486 | 0.555 | 0.66 | – | – | – | – | – | 0.921 | 0.906 | 0.95 | 0.909 | 0.983 | – | – | – | – | –
18 | NCI-H1793 | 0.908 | 0.808 | 0.859 | 0.85 | 0.773 | 0.453 | 0.28 | 0.327 | 0.271 | 0.24 | – | – | – | – | – | 0.753 | 0.81 | 0.724 | – | 0.624
19 | NCI-H1944 | 1.07 | 1.29 | 1.27 | 1.09 | 1.1 | 0.263 | 0.269 | 0.246 | 0.25 | 0.253 | – | – | – | – | – | 0.91 | 0.934 | 0.888 | 0.827 | 0.798
20 | NCI-H2170 | – | – | – | – | – | 0.67 | 0.734 | 0.736 | 0.599 | 0.8 | – | – | – | – | – | 0.98 | 0.97 | 1.1 | 0.937 | 0.951
21 | NCI-H2342 | – | – | – | – | – | 0.599 | 0.421 | 0.481 | 0.558 | 0.552 | – | – | – | – | – | 0.969 | 1.02 | 1.17 | 1.16 | 1.01
22 | SK-MES-1 | 1.15 | 0.986 | 1.05 | 0.957 | 0.99 | 0.904 | 0.983 | 0.872 | 1.05 | 0.908 | – | – | – | – | – | 0.983 | 0.955 | 0.897 | 0.971 | 0.756
23 | SW 900 | – | – | – | – | – | 0.57 | 0.558 | 0.536 | 0.524 | 0.591 | – | – | – | – | – | 0.729 | 0.909 | 0.877 | 0.6 | 0.926
